Results published in patent US20250235444A1, “COMPOSITION FOR PREVENTING OR TREATING VALVULAR CALCIFICATION” (MOKPO NATIONAL UNIVERSITY INDUSTRY-ACADEMIA COOPERATION …, priority 2022, published 2025).

What was measured:
[1] = system: porcine valvular interstitial cells; test: Calcification of porcine valvular interstitial cells induced by NaH2PO4 (PCM), Alizarin red staining and CPC analysis; assay type: cell-based; conditions: pro-calcifying medium with 2 mM NaH2PO4, 10 days
Method: (§1) To isolate porcine valvular interstitial cells, porcine heart valves were treated with collagenase for 15 minutes, after which endothelial cells were removed and cultured again for 24 hours. The cells obtained through centrifugation are valvular interstitial cells and were cultured in DMEM (high-glucose, Gibco) medium containing 0.1% amphotericin B, 1% penicillin-streptomycin, and 5% FBS.
To induce calcification, cells were seeded at a density of 1×10^4/ml in a 96-well culture vessel, and calcification was induced for a total of 10 days. […]
To quantify Alizarin Red stain, after washing twice with PBS, it was fixed with cold 70% ethanol at 4° C. for 1 hour, and after washing with dH2O, the sample was treated with 10% CPC (cetylpyridinium chloride, Sigma-Aldrich) for 1 hour (shaken and in the dark), transferred to a new measuring container, and measured for absorbance at 550 nm.
Interstitial cells were isolated from porcine heart valves and the inhibitory effect of paquinimod or tasquinimod on valvular calcification was confirmed according to the concentration. Porcine valve-derived cells were induced to calcify by NaH2PO4, and the degree of valvular calcification was measured after treatment with paquinimod or tasquinimod at different concentrations under the same conditions.

[2] = system: RUNX2 (Runt-related transcription factor2); test: Western blot analysis of calcification marker RUNX2 in calcification-induced valvular interstitial cells; assay type: cell-based, porcine; conditions: compared to the calcification-induced experimental group; calcification induced for 10 days; FIG. 3
Method: as §1
(§2) To induce calcification, cells were seeded at a density of 1×10^4/ml in a 96-well culture vessel, and calcification was induced for a total of 10 days. Control medium (CM) used DMEM containing 0.1% amphotericin B, 1% penicillin-streptomycin, and 5% FBS and the pro-calcifying medium (PCM) was a control medium with 2 mM NaH2PO4 added. The medium was replaced every 2 days.
(§3) To observe if anti-calcification substances inhibit calcification, 10 uM or 100 uM paquinimod or 10 uM tasquinimod were treated, and 10% DMSO (Sigma-Aldrich) was treated as a control, and then cultured in a cell incubator at 37° C. with a 5% CO2 concentration.
(§4) After seeding cells at 5×10^4/mL in a 6-well plate, calcification was induced for a total of 10 days. […]
(§5) To lyse the cells, 1×RIPA buffer was added to each well and lysed for 10 minutes. […] Protein quantification of the obtained cell lysates was measured using Bio-Rad DC protein reagent. […]

[3] = system: Osteopontin (OPN); test: Western blot analysis of calcification marker osteopontin in calcification-induced valvular interstitial cells; assay type: cell-based, porcine; conditions: compared to the calcification-induced experimental group; calcification induced for 10 days; FIG. 3
Method: as §1, §2, §3, §4, §5

Row | Compound | degree of valvular calcification ([1]; 10 uM tasquinimod, FIG. 2) | expression of RUNX2 (Western blot) [2] | degree of valvular calcification (Alizarin red staining and CPC analysis) ([1]; 10 uM or more of paquinimod (10 uM or 100 uM), FIG. 1) | expression of osteopontin (Western blot) [3]
1 | COc1cccc2c1c(O)c(C(=O)N(C)c1ccc(C(F)(F)F)cc1)c(=O)n2C [tasquinimod] | had an inhibitory effect on valvular calcification | – | – | –
2 | CCc1cccc2c1c(O)c(C(=O)N(CC)c1ccccc1)c(=O)n2C [paquinimod] | – | significantly reduced | inhibition of valvular calcification in a concentration-dependent manner | significantly reduced
